Assay results from ChEMBL document CHEMBL1201862, “PubChem BioAssay data set” (2004).
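A five-concentration, 48-hour dose response in 96-well plates underlies each endpoint, interpolated linearly between surrounding concentrations. GI50 marks 50% less growth.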 Active and inactive are the calls of the source. Rule as the data show it: active = GI50 up to about 1.1 µM and inactive = higher.

How the values were obtained:
Assay in all cases: inhibition of tumour cell growth, NCI panel, 48 h
[1] = test system: U-251
[2] = test system: TK-10
[3] = test system: HCT-116
[4] = test system: HCC 2998
[5] = test system: SR
[6] = test system: T47D
[7] = test system: K562
[8] = test system: SK-MEL-5
[9] = test system: NCI-H23
[10] = test system: OVCAR-4
[11] = test system: Malme-3M
[12] = test system: PC-3
[13] = test system: SK-MEL-2
[14] = test system: BT-549
[15] = test system: LOX IMVI
[16] = test system: NCI/ADR-RES
[17] = test system: MDA-MB-435
[18] = test system: UACC-257
[19] = test system: MCF7

Measured: GI50

c1ccc2sc(SCSc3nc4ccccc4s3)nc2c1
inactive: [1] 39.3 µM | [2] 66.4 µM | [3] 34.1 µM | [4] 75.9 µM | [5] 7.08 µM | [6] > 100 µM | [7] 31.1 µM | [8] 30.1 µM | [9] 70.3 µM | [10] > 100 µM | [11] > 100 µM | [12] 42.1 µM | [13] > 100 µM | [14] > 100 µM | [15] 47.2 µM | [16] 94 µM | [17] > 100 µM | [18] 28.5 µM

COc1ccc2nc(NCN3C(=O)c4ccccc4C3=O)sc2c1
inactive: [19] > 100 µM | [1] > 100 µM | [2] > 100 µM | [3] > 100 µM | [6] > 100 µM | [7] > 100 µM | [8] > 100 µM | [9] > 100 µM | [10] > 100 µM | [11] > 100 µM | [12] > 100 µM | [13] > 100 µM | [14] > 100 µM | [15] > 100 µM | [16] > 100 µM | [17] > 100 µM | [18] > 100 µM

CCOC(=O)c1ccc(-c2cc(C)no2)[nH]1
inactive: [1] 98.4 µM | [2] > 100 µM | [3] 75.3 µM | [6] 68.5 µM | [7] 32.5 µM | [8] 81.3 µM | [9] > 100 µM | [10] 74.6 µM | [11] > 100 µM | [12] 83.8 µM | [13] > 100 µM | [14] > 100 µM | [15] > 100 µM | [16] 46.7 µM | [17] 11.4 µM | [18] > 100 µM

CC1=C(C(=O)Nc2cccc3c2C(=O)NC3=O)CC(C(=O)Nc2cccc3c2C(=O)NC3=O)=C(C)N1
inactive: [19] > 100 µM | [1] > 100 µM | [2] > 100 µM | [3] > 100 µM | [4] 95.5 µM | [5] > 100 µM | [6] > 100 µM | [7] > 100 µM | [8] > 100 µM | [9] > 100 µM | [10] > 100 µM | [11] > 100 µM | [12] > 100 µM | [13] > 100 µM | [14] > 100 µM | [15] > 100 µM | [17] > 100 µM | [18] > 100 µM

CCOC(=O)c1c2ccccc2n2c(=O)n(C)nnc12
inactive: [19] > 100 µM | [1] > 89.1 µM | [2] > 75.5 µM | [3] > 100 µM | [4] > 100 µM | [6] > 100 µM | [7] > 100 µM | [8] > 100 µM | [9] > 100 µM | [10] > 100 µM | [11] > 100 µM | [12] > 100 µM | [13] > 100 µM | [14] > 100 µM | [15] > 100 µM | [16] > 100 µM | [17] > 53.7 µM | [18] > 100 µM

O=c1[nH]c(=O)n(C2CC(O)C(CO)O2)cc1/N=N/NCc1ccccc1 (stereo not given)
inactive: [19] > 100 µM | [1] > 100 µM | [2] > 100 µM | [3] > 100 µM | [5] > 100 µM | [6] > 100 µM | [7] > 100 µM | [8] > 100 µM | [9] > 100 µM | [10] > 100 µM | [11] > 100 µM | [12] > 100 µM | [14] > 100 µM | [15] > 100 µM | [16] > 100 µM | [17] > 100 µM | [18] > 100 µM

CCOP(=O)(OCC)[C@H]1OC(C)(C)O[C@@H]1CO
inactive: [19] > 100 µM | [1] > 100 µM | [2] > 100 µM | [3] > 100 µM | [4] > 100 µM | [6] > 100 µM | [8] > 100 µM | [9] > 100 µM | [10] > 100 µM | [11] > 100 µM | [12] > 100 µM | [13] > 100 µM | [14] > 100 µM | [15] > 100 µM | [16] > 100 µM | [17] > 100 µM | [18] > 100 µM

CCO/C=N/C1=C(C#N)C(c2ccc(OC)c(OC)c2)c2c(-c3ccccc3)nn(-c3ccccc3)c2O1 (stereo not given)
inactive: [19] 16.6 µM | [1] 12.7 µM | [3] 13.1 µM | [4] > 100 µM | [6] 9.14 µM | [7] 6.68 µM | [8] 12 µM | [9] 15.4 µM | [11] 19 µM | [12] 13.6 µM | [13] 18.5 µM | [14] 8.13 µM | [15] 15.4 µM | [16] 15.6 µM | [17] 17 µM | [18] > 100 µM

C=CCc1[nH]c2c(OCc3ccccc3)cc(N(CC=C)C(C)=O)cc2c1C
inactive: [19] 12.4 µM | [1] 12.8 µM | [2] 16.4 µM | [3] 12.3 µM | [4] 15.1 µM | [6] 3.79 µM | [7] 10.1 µM | [8] 11.8 µM | [9] 13.9 µM | [10] 8.79 µM | [11] 16.4 µM | [12] 6.76 µM | [13] 12.4 µM | [14] 15.8 µM | [15] 12.5 µM | [16] 14.3 µM | [17] 17.1 µM | [18] 16 µM

O=C(Nn1c(-c2ccccc2)nc2ccccc2c1=O)c1ccccn1
inactive: [1] 75.7 µM | [2] > 100 µM | [3] 57.4 µM | [4] > 100 µM | [5] > 100 µM | [6] > 100 µM | [7] 78.5 µM | [8] 37.7 µM | [9] > 100 µM | [10] > 100 µM | [11] > 100 µM | [12] > 100 µM | [14] > 100 µM | [15] > 100 µM | [16] > 100 µM | [17] > 100 µM | [18] > 100 µM

CC(C)C1=CC23CCC4C(C)(C(=O)O)CCCC4(C)C2CC1C1C(=O)N(c2ccc(C(=O)O)cc2)C(=O)C13 (stereo not given)
inactive: [19] > 100 µM | [1] > 100 µM | [2] > 100 µM | [3] > 100 µM | [4] > 100 µM | [6] > 100 µM | [7] > 100 µM | [8] > 100 µM | [9] > 100 µM | [10] > 100 µM | [11] > 100 µM | [12] > 100 µM | [13] > 100 µM | [14] > 100 µM | [15] > 100 µM | [16] > 100 µM | [17] > 100 µM | [18] > 100 µM
